Data from article PMC3469417, “Loss of Slc4a1b Chloride/Bicarbonate Exchanger Function Protects Mechanosensory Hair Cells from Aminoglycoside Damage in the Zebrafish Mutant persephone” (PLoS Genetics, 2012).

Assays:
[1] = molecular target: T1, zebrafish Slc4a1b (zSlc4a1b) (Danio rerio, UniProt D1FTM8); assay: […]- influx in Xenopus oocytes; type: cell-based; details: 200 µM DIDS; inhibitor; bath Cl- 103.6 mM, pH 7.4; disodium salt
T1 construct: cRNA expressed in Xenopus laevis oocytes
T1 sequence (D1FTM8 61-851): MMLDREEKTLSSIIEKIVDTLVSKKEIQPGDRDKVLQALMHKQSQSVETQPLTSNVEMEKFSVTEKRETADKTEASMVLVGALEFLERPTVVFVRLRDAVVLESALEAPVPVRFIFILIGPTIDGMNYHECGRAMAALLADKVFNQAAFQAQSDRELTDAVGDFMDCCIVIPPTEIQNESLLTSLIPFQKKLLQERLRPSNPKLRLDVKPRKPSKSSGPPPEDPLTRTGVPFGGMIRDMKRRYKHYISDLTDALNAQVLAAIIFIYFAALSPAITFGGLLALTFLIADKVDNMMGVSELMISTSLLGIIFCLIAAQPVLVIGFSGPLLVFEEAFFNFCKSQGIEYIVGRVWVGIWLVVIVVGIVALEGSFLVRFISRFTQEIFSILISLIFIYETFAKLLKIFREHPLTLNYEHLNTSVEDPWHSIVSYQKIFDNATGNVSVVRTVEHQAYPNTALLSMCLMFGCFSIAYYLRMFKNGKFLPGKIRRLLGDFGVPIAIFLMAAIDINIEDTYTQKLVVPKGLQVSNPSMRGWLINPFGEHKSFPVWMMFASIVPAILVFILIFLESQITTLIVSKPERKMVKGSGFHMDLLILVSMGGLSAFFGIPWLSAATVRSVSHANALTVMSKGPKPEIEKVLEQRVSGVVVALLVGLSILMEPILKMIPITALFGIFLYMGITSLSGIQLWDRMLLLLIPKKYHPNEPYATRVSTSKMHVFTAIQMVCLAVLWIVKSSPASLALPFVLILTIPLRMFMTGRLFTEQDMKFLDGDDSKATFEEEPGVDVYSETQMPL

human SLC4A1 (hSlc4a1) = molecular target: T2, human SLC4A1 (hSlc4a1) (Homo sapiens, UniProt P02730); assay: […]- influx in Xenopus oocytes; type: cell-based; details: 200 µM DIDS; inhibitor; bath Cl- 103.6 mM, pH 7.4; disodium salt
T2 construct: expressed in Xenopus laevis oocytes
T2 sequence (P02730 1-911): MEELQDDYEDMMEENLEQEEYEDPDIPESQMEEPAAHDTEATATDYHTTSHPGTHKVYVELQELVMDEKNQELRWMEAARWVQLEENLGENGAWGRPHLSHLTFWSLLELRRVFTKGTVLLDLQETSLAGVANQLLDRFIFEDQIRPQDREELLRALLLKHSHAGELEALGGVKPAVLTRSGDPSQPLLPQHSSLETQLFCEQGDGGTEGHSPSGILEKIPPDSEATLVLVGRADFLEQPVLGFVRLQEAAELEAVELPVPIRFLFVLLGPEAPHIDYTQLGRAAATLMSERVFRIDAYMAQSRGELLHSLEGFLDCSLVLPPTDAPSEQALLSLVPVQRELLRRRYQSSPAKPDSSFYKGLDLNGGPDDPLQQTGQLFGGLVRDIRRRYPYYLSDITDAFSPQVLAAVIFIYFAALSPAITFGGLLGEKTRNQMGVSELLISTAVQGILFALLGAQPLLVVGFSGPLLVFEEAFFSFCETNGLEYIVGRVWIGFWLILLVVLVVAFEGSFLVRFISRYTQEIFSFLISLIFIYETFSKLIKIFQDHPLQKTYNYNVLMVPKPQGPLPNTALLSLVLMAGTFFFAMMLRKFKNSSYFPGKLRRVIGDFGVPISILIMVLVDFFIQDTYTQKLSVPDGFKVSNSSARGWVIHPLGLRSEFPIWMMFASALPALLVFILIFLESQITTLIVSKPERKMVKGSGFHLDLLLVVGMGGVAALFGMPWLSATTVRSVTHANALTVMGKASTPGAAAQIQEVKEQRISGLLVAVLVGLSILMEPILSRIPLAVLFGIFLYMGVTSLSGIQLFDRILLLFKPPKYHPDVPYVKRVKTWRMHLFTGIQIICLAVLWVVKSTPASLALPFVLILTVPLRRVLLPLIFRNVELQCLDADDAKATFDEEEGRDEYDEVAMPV

In the case of `O=S(=O)(O)c1cc(N=C=S)ccc1/C=C/c1ccc(N=C=S)cc1S(=O)(=O)O` [DIDS, 4,4′-diisothiocyano-2,2′-stilbenedisulfonic acid], the “36Cl- influx in Xenopus oocytes” value [1] is reported as “zebrafish Slc4a1b and by human SLC4A1 was abolished by treatment with the disulfonic stilbene DIDS” and the “36Cl- influx in Xenopus oocytes” value (human SLC4A1 (hSlc4a1)) is reported as “zebrafish Slc4a1b and by human SLC4A1 was abolished by treatment with the disulfonic stilbene DIDS”.
